In patent publication US8936807B2, “Use of the cathelicidin LL-37 and derivatives thereof for wound healing” (Lipopeptide AB, priority 2003, dated 2015):

Tests used:
Type in all cases: cell-based, human
HaCat cells [1] = experiment: Proliferation and viability of HaCat cells measured by mitochondrial activity (WST-1); conditions: EGF 1.7 nM, 10% serum, 48 h
Procedure: (§1) HaCat cells were used for these experiments. HaCat cells are an immortalized human keratinocyte cell line (Boukamp et al., J Cell Biol 106:761-771, 1988), which is suitable for experimental keratinocyte research. HaCat cells were cultured in medium (DMEM, +10% FCS and PEST). Both types of cell cultures were treated with synthetic, bioactive LL-37 (lot YS 5253). In addition a mixture of LL-37 (114 μg/ml) and CPL-Galactolipid (0.2%) in medium containing serum at either 2 or 10% was added to evaluate the capacity to increase proliferation and inhibit cytotoxicity. Cells were harvested at different time-points (24 h, 48 h, 72 h and 96 h) and counted by flowcytometry (Becton-Dickinson) and stained by Trypan-Blue to evaluate viability. […] Proliferation and viability were also ascertained by measuring mitochondrial activity (WST-1, Roche, Cook et al. Anal Biochem 179:1-7, 1989).

HaCat cells [2] = experiment: Proliferation of HaCat cells assessed by flowcytometry and Trypan-Blue; conditions: EGF 1.7 nM, 10% serum
Procedure: as §1, with “In addition a mixture of LL-37 (114 μg/ml) and CPL-Galactolipid (0.2%) in medium containing serum at either 2 or 10% was added to evaluate the capacity to increase proliferation and inhibit cytotoxicity.” left out

HaCat cells [3] = experiment: Proliferation of HaCat cells assessed by 3H-Thymidine incorporation; conditions: 10% serum, 96 Hours; for Increased Proliferation (%): vs control 0 μg/ml
Procedure: HaCat cells were cultured in medium (DMEM, +10% FCS and PEST). HaCaT cells were plated in 96 well plates (Falcon, USA) at the concentration of 2000 cells per well. Cells were plated at −48 hours and stimulated with different concen-trations of synthetic LL-37, LL-36, and LL-38 peptide by hour 0 and after 48 hours.
The testing was done in one experiment with 6 wells in each condition. […] of ^3H-Thymidine (THYMIDINE, [METHYL-^3H]-740.0 GBq/mmol (20.00 Ci/mmol) 1.0 ml of Ethanol:Water, 7:3, Perkin Elmer Life Sciences Inc. Boston Mass., USA) was added to each well and incubated for 12-17 hours. Proliferation was evaluated by ^3H-Thymidine incorporation a liquid scintilator (MicroBeta Perkin Elmer Life Sciences Inc. Boston Mass., USA) after 72 and 96 hours.

EGF: EGF, the golden standard for epithelial cell proliferation, used at 1.7 nM [reference compound]
Absorbance (HaCat cells [1]): 1.107
Increased Proliferation (%) (HaCat cells [1]; vs baseline (-EGF)): 77%
Number of Cells (Mean) (HaCat cells [2]; 96 h): 42000
Increased Proliferation (%) (HaCat cells [2]; 96 h, vs baseline (-EGF)): 30%
Number of Cells (Mean) (HaCat cells [2]; no lipid, 72 h): 85050
Increased Proliferation (%) (HaCat cells [2]; no lipid, 72 h, vs baseline): 54%
Number of Cells (Mean) (HaCat cells [2]; with lipid 0.2%, 72 h): 87640
Increased Proliferation (%) (HaCat cells [2]; with lipid 0.2%, 72 h, vs baseline): 58%

LLGDFFRKSKEKIGKEFKRIVQRIKDFLRNLVPRTE (Synthetic Peptide LL-36)
Counts Per Minute (Mean) (HaCat cells [3]; LL-36 1.00 μg/ml): 86253 Counts Per Minute
Increased Proliferation (%) (HaCat cells [3]; LL-36 1.00 μg/ml): 24%
Counts Per Minute (Mean) (HaCat cells [3]; LL-36 5.00 μg/ml): 116381 Counts Per Minute
Increased Proliferation (%) (HaCat cells [3]; LL-36 5.00 μg/ml): 68%
Counts Per Minute (Mean) (HaCat cells [3]; LL-36 10.00 μg/ml): 70157 Counts Per Minute
Increased Proliferation (%) (HaCat cells [3]; LL-36 10.00 μg/ml): 1%
Counts Per Minute (Mean) (HaCat cells [3]; LL-36 25.00 μg/ml): 72674 Counts Per Minute
Increased Proliferation (%) (HaCat cells [3]; LL-36 25.00 μg/ml): 5%
Counts Per Minute (Mean) (HaCat cells [3]; LL-36 50.00 μg/ml): 68560 Counts Per Minute
Increased Proliferation (%) (HaCat cells [3]; LL-36 50.00 μg/ml): -1%

LLGDFFRKSKEKIGKEFKRIVQRIKDFLRNLVPRTESS (Synthetic Peptide LL-38)
Counts Per Minute (Mean) (HaCat cells [3]; LL-38 1.00 μg/ml): 82008 Counts Per Minute
Increased Proliferation (%) (HaCat cells [3]; LL-38 1.00 μg/ml): 4%
Counts Per Minute (Mean) (HaCat cells [3]; LL-38 5.00 μg/ml): 68694 Counts Per Minute
Increased Proliferation (%) (HaCat cells [3]; LL-38 5.00 μg/ml): −13%
Counts Per Minute (Mean) (HaCat cells [3]; LL-38 10.00 μg/ml): 57293 Counts Per Minute
Increased Proliferation (%) (HaCat cells [3]; LL-38 10.00 μg/ml): −28%
Counts Per Minute (Mean) (HaCat cells [3]; LL-38 25.00 μg/ml): 54294 Counts Per Minute
Increased Proliferation (%) (HaCat cells [3]; LL-38 25.00 μg/ml): −31%
Counts Per Minute (Mean) (HaCat cells [3]; LL-38 50.00 μg/ml): 48701 Counts Per Minute
Increased Proliferation (%) (HaCat cells [3]; LL-38 50.00 μg/ml): −39%
